Laboratory results: patent US8461186B2, “Use of N-piperidine derivatives for the treatment of neurodegenerative pathologies” (Medestea Research & Production S.p.A., priority 2004, dated 2013)

Legend:
[1] = test system: rats receiving Paraquat into Substantia Nigra; assay type: in vivo, rat
Excerpt: The Paraquat/rat/PS experimental model was therefore selected as the most indicative for checking the efficacy of chemical compounds according to the present invention; of these, two anti-oxidants designated MP1002 and MP1001 were used in the tests:
Male Sprague Dawley rats (210-220 g weight) were kept on a standard laboratory diet supplemented with “Nossan Pellets” (both the animals and the pellets are available from Nossan Company, Milan, Italy) and were housed for three weeks (relative humidity 50%±10%, temperature 22° C.±1 and in a light/darkness cycle of 12 hours/12 hours, with first light at 7.30 a.m.) prior to the tests; food and water were available ad libitum.
Prior to treatment, the rats were anaesthetized by intraperitoneal injection of 380 mg/kg weight of chloral hydrate; a stainless steel guide cannula (size 25) was implanted unilaterally in the Substantia Nigra with stereotaxic guiding and was secured to the cranium with dental acrylic material.
The animals (20 per test group) were allowed a recovery period of seven days prior to treatment; during this period no change in motor activity or posture was observed. Microinfusions were performed by means of a 10 μl Hamilton syringe connected to an injection cannula by means of a Teflon tube. The compounds or the vehicle (0.8% NaCl) were injected at a total volume of 1 μl/minute.
Microinfusion of 50 μg of Paraquat into the Substantia Nigra (n=20 rats) led to an increase in motor activity with the animals performing jumps and moving in circles in a contralateral direction relative to the injection position, about 24 minutes later; all of the animals were dead 24±2.5 hours after infusion. A further twenty animals were infused with Paraquat and twenty with Paraquat plus vehicle; about ten of the animals for each group survived 20 hours after treatment and were used to determine the development of lipid peroxidation in the Substantia Nigra.

[2] = test system: lipid peroxidation in the Substantia Nigra; assay type: in vivo; conditions: Substantia Nigra, 20 hours after Paraquat alone, 50 μg microinfusion
Procedure: Microinfusion of 50 μg of Paraquat into the Substantia Nigra (n=20 rats) led to an increase in motor activity with the animals performing jumps and moving in circles in a contralateral direction relative to the injection position, about 24 minutes later; all of the animals were dead 24±2.5 hours after infusion. […]
[…]. Enzymol. 52, 302-310, 1978.

[3] = 50 μg Paraquat into the Substantia Nigra, n=20 rats
[4] = Paraquat alone, 50 μg microinfusion into Substantia Nigra

## C[n+]1ccc(-c2cc[n+](C)cc2)cc1 [Paraquat, reference compound]
[1]; [3]
  time after infusion at which all of the animals were dead: 24 ± 2.5 h
  time to increase in motor activity (jumps, contralateral circling) after microinfusion: about 24 minutes
[1]; [4]
  Duration (seizures): 270 ± 15 min
  Latency (seizures): 25 ± 4 min
  Mortality: 100 (20/20) %
[2]
  Lipid Peroxidation: 14.6 ± 1.34 nmol MDA × h^−1 × mg prot^−1
